Laboratory results taken from US7166270B1, “Methods of screening compounds useful for prevention of infection or pathogenicity” (The Netherlands Cancer Institute, priority 1995, dated 2007).

Test system: Caenorhabditis elegans
Test: C. elegans fast killing assay on PGS/PG agar
Type: in vivo
Experimental: The rate of killing observed under these conditions is defined as “slow killing.” Briefly, under the slow killing conditions, 5 μl of an overnight liquid culture of PA14 is spread on the center of an NGM (or M9) agar plate and grown for 37° C. for 24 hours. The plates are then allowed to cool to room temperature for several hours. Worms at the fourth larval stage (L4) are added to the agar but not in contact with the bacterial lawn. The worms typically move toward the bacterial lawn and commence feeding. In contrast, when PA14 worms were grown on peptone-glucose-sorbitol (PGS), a richer medium of higher osmolarity, a different result was obtained. When L4 worms were placed on PGS plates, the worms became sluggish, then paralyzed, and then died within 4–24 hours (FIG. 5). Some worms died even before coming into direct contact with the bacterial lawn. This more rapid killing on PGS agar is termed “fast killing.”
Nematode Killing Assay. Worm killing by P. aeruginosa was performed in a plate assay. For the fast killing assay, 5 μl of an overnight King's B (King et al. (1954) J. Lab. Clin. Med. 44:301–307) culture of PA14, or the test strains, were spread on 3.5 cm diameter plates containing PGS or PG agar. A bacterial lawn of about 2 cm diameter grew in the center of plate after incubation at 37° C. for 24 hours. After cooling to room temperature (ranges from 4–12 hours after removal from 37° C. incubator), 40 worms were added to the agar. Unless otherwise stated all worm strains were cultured at 20° C., and the fourth larval (L4) stage was used. The experiments were performed in 3–4 replicates per strain. Bristol N2 was used as the wild-type strain and E. coli OP50 for the negative control. Plates seeded with worms were incubated in 25° C. Worm mortality was scored at various time points. A worm was considered dead when no movement was detectable when touched lightly with an eye-lash pick. Slow killing assays were performed generally as described above.

[Cl][Fe]([Cl])[Cl] [FeCl3]
effect on PA14 fast killing of C. elegans (in words) (100 μM added to PGS): significantly reduced killing

OC[C@@H](O)[C@@H](O)[C@H](O)[C@@H](O)CO [sorbitol]
effect on PA14 fast killing of C. elegans (in words) (0.15 M added to Peptone-Glucose medium, compared to 0.1 M or no sorbitol): significantly increased the rate of killing

EDDA
effect on PA14 fast killing of C. elegans (in words) (400 μM added to PGS): did not significantly affect fast killing
